Assay [1] concerns the target T1, histamine H4 receptor (Homo sapiens, UniProt Q9H3N8).
T1 construct: expressed in transfected cells
In words: in vitro assay of histamine H4 activity using FLIPR-Ca+2 flux. It counts as cell-based. The note with it: HEK-293 cells stably expressing histamine H4 receptor and Gαqi5, Fluo-4; Kb for antagonists and inverse agonists, EC50 for partial agonists. The text has this:
There are many methods available to show the effectiveness of compounds as histamine H4 receptor ligands. Histamine H4 receptors from mammalian species have been cloned. Methods to clone, express, and assess the potency and functional activity of such cloned genes are well known to those skilled in the art of molecular biology. Examples of methods of cloning and expressing histamine H4 receptors, and of assessing the potency and functional activity are described in Nguyen, et al. Molecular Pharmacology (2001) vol. 59 pp. 427-433; Zhu, et al. Molecular Pharmacology (2001) vol. 59 pp. 434-441; Coge, et al., Biochemical and Biophysical Research Communications (2001) vol. 284, pp. 301-309; Liu, et al. Molecular Pharmacology (2001) vol. 59 pp. 420-426; Liu, et al. Journal of Pharmacology and Experimental Therapeutics (2001) v. 299, pp. 121-130; and Thurmond, et al. Journal of Pharmacology and Experimental Therapeutics (2004) v. 309, pp. 404-413. In the present case, to determine the potency and effectiveness of representative compounds of this invention as histamine-H4 receptor ligands (H4 receptor ligands), the following tests were conducted according to previously described methods (see Esbenshade, et al., Biochemical Pharmacology (2004), vol. 68, pp. 933-945, and in Krueger, et al., Journal of Pharmacology and Experimental Therapeutics (2005) v. 314, pp. 271-281): histamine H4 receptors were cloned and stably expressed in HEK-293 (human embryonic kidney) cells coexpressing a Gαqi5. Before testing, cells are loaded with a Ca+^2 sensitive fluorescent dye, in this case Fluo-4 (Invitrogen, Carlsbad, Calif.). In the case of partial agonist or agonist ligands, addition of compound to the cells leads to the increase in intracellular Ca^+2 which is detected by FLIPR (Fluorescence Imaging Plate Reader; Molecular Devices, Sunnyvale, Calif.) technology. In a similar manner, compounds that are antagonists or inverse agonists, block the increase in fluorescence induced by the full histamine H4 agonist histamine, and partial agonists reduce the amount of fluorescence induced by the full histamine H4 agonist histamine. The fluorescence intensities measured before addition of the test compound are subtracted from the fluorescence intensities at later time points. Peak response values determined at each concentration of ligand are expressed as a percentage of the response obtained with the full agonist histamine. Concentration versus response data are analyzed to obtain compound potency as Kb values for antagonists and inverse agonists and as EC50 values for partial agonists.

The test system of assay [2] is carrageenan-induced thermal hyperalgesia. In words: acute model of carrageenan-induced thermal hyperalgesia (hotbox assay). It counts as in vivo. The note with it: assessed 30 minutes after dosing. On the procedure: To assess the effectiveness of representative compounds of the invention against acute model inflammatory pain, animals were tested in an acute model of carrageenan-induced thermal hyperalgesia (see for example, Honore, et al. Behavioural Brain Research (2006) vol. 167 pp. 355-364; Porreca, et al. Journal of Pharmacology and Experimental Therapeutics (2006) vol. 318 pp. 195-205). Carrageenan was injected into the test paw of the animal, and after 90 minutes, the test drug was administered by intraperitoneal dosing; the effect on thermal hyperalgesia was assessed in a hotbox assay which was done 30 minutes after the intraperitoneal dosing of the test drug, and the MPE (maximal percent effect) reported by comparison to the control paw (not injected with carrageenan), according to 100 times the withdrawal latency of the carrageenan injected paw (in seconds) divided by the withdrawal latency of the control (not injected with carrageenan) paw. […] Representative compounds are active in this model, with preferred compounds of the invention active in the model at doses of about 100 micromoles/kg of body weight.

Assay [3] deals with T1, histamine H4 receptor. In words: 3H-histamine competition binding assay. On the procedure: The potency of compounds of the invention in displacing ^3H-histamine in competition binding assays is assessed by methods described in Esbenshade, et al., Biochemical Pharmacology (2004), vol. 68, pp. 933-945. In this assay, membranes were prepared from HEK-293 cells transiently transfected with the pClNeo expression vector harboring the histamine H4 receptor by homogenization of the cells on ice in TE buffer (50 mM Tris-HCl buffer, pH 7.4, containing 5 mM EDTA), 1 mM benzamidine, 2 μg/mL aprotinin, 1 μg/mL leupeptin, and 1 μg/mL pepstatin. The homogenate was centrifuged at 40,000 g for 20 minutes at 4° C. This step was repeated, and the resulting pellet was resuspended in TE buffer. Aliquots were frozen at −70° C. until needed. On the day of assay, membranes were thawed and diluted with TE buffer. Competition radioligand binding assays were performed with increasing concentrations of test compound in the presence of [^3H]-histamine incubated at 25° C. for 1 hour in a total volume of 0.5 mL of 50 mM Tris, 5 mM EDTA, pH 7.4. All binding reactions were terminated by filtration under vacuum onto polyethylenimine (0.3%) presoaked Unifilters (PerkinElmer Life Sciences) or Whatman GF/B filters (Whatman, Clifton, N.J.) followed by three brief washes with 4 mL of ice-cold TE buffer. Bound radiolabel was determined by liquid scintillation counting. For all of the radioligand competition binding assays, IC50 values and Hill slopes were determined by Hill transformation of the data and Ki values were determined by the Cheng-Prusoff equation. The following table of representative histamine H4 receptor ligands is provided, along with potency values: […]

Setting [4] is: 100 micromole/kg injected intraperitoneally.
[5] abbreviates: membranes of HEK-293 cells transiently transfected with histamine H4 receptor, [3H]-histamine, 25° C., 1 hour, read-out: Binding assay Potency (Ki).

Read-outs that look alike come from different tables or passages of the source.

This is an account of results in US8278311B2, “Substituted pyrimidine derivatives” (Abbott Laboratories, priority 2008, dated 2012).

T1 sequence (Q9H3N8 whole entry, species assumed): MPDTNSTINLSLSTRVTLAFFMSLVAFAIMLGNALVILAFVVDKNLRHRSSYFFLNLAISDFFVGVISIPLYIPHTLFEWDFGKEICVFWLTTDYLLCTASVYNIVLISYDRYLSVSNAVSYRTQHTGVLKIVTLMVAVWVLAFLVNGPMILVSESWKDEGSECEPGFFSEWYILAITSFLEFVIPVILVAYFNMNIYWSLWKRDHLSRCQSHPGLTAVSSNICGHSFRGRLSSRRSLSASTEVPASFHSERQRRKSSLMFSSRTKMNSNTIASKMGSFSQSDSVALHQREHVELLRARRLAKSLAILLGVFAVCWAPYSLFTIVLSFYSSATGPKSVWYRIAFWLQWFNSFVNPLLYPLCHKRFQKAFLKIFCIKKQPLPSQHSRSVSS

`Nc1nc2c(c(N3CCNCC3)n1)CCC1=C2[C@H]2CCCC[C@H]2O1` (single isomer, unassigned) [Example 4, (+)-(7aR*,11aR*)-4-piperazin-1-yl-5,6,7a,8,9,10,11,11a-octahydro[1]benzofuro[2,3-h]quinazolin-2-amine] came in with a Potency on histamine H4 receptor [1] of 4.5 nM. Further, the “MPE (maximal percent effect)” value in assay [2] (setting [4]) is on record as 63%. The Ki (in general, a dissociation constant, usually derived from enzyme kinetics or from competition with a known ligand) on histamine H4 receptor [3] (setting [5]) was determined as 3 nM.
In the case of `Nc1nc2c(c(N3CCNCC3)n1)CCC1=C2C2CCCCC2O1` (stereo not shown) [Example 1, 4-piperazin-1-yl-5,6,7a,8,9,10,11,11a-octahydro[1]benzofuro[2,3-h]quinazolin-2-amine], on histamine H4 receptor [1], the Potency amounted to 4.7 nM. Further, the “MPE (maximal percent effect)” value is listed as 48% in assay [2] (30 micromole/kg injected intraperitoneally) and 68% in assay [2] (setting [4]). Besides, at histamine H4 receptor [3] (setting [5]), the Ki was found to be 5.8 nM.
Compound `CNC1CN(c2nc(N)nc3c2CC[C@@H]2CCCC[C@@H]32)C1.O=C(O)C(F)(F)F.O=C(O)C(F)(F)F` (relative stereo) [Example 14, trans-4-[3-(methylamino)azetidin-1-yl]-5,6,6a,7,8,9,10,10a-octahydrobenzo[h]quinazolin-2-amine bis(trifluoroacetate)] displayed a Potency at histamine H4 receptor [1] of 1.5 nM. Besides, at histamine H4 receptor [3] (setting [5]), the Ki was determined as 0.9 nM.
For the compound `Nc1nc2c(c(N3CCNCC3)n1)CCC1=C2[C@@H]2CCCC[C@@H]2O1` (single isomer, unassigned) [Example 3, (−)-(7aS*,11aS*)-4-piperazin-1-yl-5,6,7a,8,9,10,11,11a-octahydro[1]benzofuro[2,3-h]quinazolin-2-amine], the Potency at histamine H4 receptor [1] is recorded as 5.9 nM. The “MPE (maximal percent effect)” value in assay [2] (setting [4]) is recorded as 47%. At histamine H4 receptor [3] (setting [5]), the Ki turned out to be 16.6 nM.
`Nc1nc(N2CC[C@@H](N)C2)c2ccc3c(c2n1)C1CCCCC1O3` (stereo partly drawn) [Example 7, 4-[(3R)-3-aminopyrrolidin-1-yl]-7a,8,9,10,11,11a-hexahydro[1]benzofuro[2,3-h]quinazolin-2-amine]: on histamine H4 receptor [1], the Potency turned out to be 4.1 nM. Further, on histamine H4 receptor [3] (setting [5]), the Ki was 12.6 nM.
`Nc1nc2c(c(N3CC4CCCNC4C3)n1)CCC1CCCCC21` (stereo not drawn) [Example 18, trans-4-[cis-octahydro-6H-pyrrolo[3,4-b]pyridin-6-yl]-5,6,6a7,8,9,10,10a-octahydrobenzo[h]quinazolin-2-amine] showed a Potency on histamine H4 receptor [1] of 4.9 nM. Further, on histamine H4 receptor [3], the Ki worked out at 2.6 nM.
